# Experimental data taken from patent US5912258A, “Thiadiazoleamide derivative and anti-ulcer drug” (Shiseido Co., Ltd., priority 1998, dated 1999).
# Tests used:
# [1] = tested on: stress ulcer formation; assay: WIS: Restraint and Water Immersion Stress-Induced Ulcer Inhibition Test; format: in vivo, Male Crj:SD or Slc:SD rats; details: rat, 100 mg/kg orally, 7 hours water immersion stress
# Experimental: WIS: Restraint and Water Immersion Stress-Induced Ulcer Inhibition Test (i) Meaning The degree of inhibition of the stress ulcer formation is tested. (ii) Method Male Crj:SD or Slc:SD rats (6 to 7-weeek-old) were fasted overnight, but allowed free access to water. Each group has 5 to 8 of these rats. The sample compound was dissolved or suspended in an aqueous solution of 0.3% sodium carboxymethylcellulose or 0.05% Tween 80 and then was orally administered (100 mg/10 ml/kg). To a control group, the vehicle was administered. 10 minutes later, the rats were placed in a stress cage and immersed to the level of xiphoid process in a water bath (21° C.) for 7 hours. At the end of the stress, the rats were sacrificed by inhalation of ether or carbon dioxide. Then, the stomach of each was removed, inflated by injecting 10 ml of 5% formalin neutral buffer solution, and immersed in 1% formalin neutral buffer solution for 30 minutes or more to be fixed. The stomach was incised along the greater curvature and then the length of each erosion in the glandular portion was determined under dissecting microscope. The sum of the length of erosions per stomach was defined as ulcer index (UI). (iii) Judgment Standard […]
# [2] = MTT: Cell Damaging and Protecting Effect Test; format: cell-based, male Japanese White rabbit; details: rabbit, gastric mucosa cells, 10^-4 M, smaller value is better, read-out: MTT: cell damaging rate
# Excerpt: MTT: Cell Damaging and Protecting Effect Test
# It is confirmed that there is no toxicity in cell level. Those having toxicity in cell level are inappropriate as an anti-ulcer drug.
# A male Japanese White rabbit (2.5 to 3 kg) was anesthetized to death by Nembutal™ and, immediately thereafter, its stomach was removed. The greater curvature of the stomach was incised so as to remove the stomach contents therefrom. After the mucosal surface was washed with HBSS (Hank's Balanced Salt Solution), the stomach in ice-cooled HBSS was transferred to a laboratory. Then, after the pyloric antrum was removed, the gastric corpus mucosa was separated by a spatula and then minced into 2 to 3 mm pieces in BME (Basal Medium Eagle). Thereafter, these pieces were shaken at 120 to 130 cycles/minute for 15 minutes at 37° C. in BME 60 ml containing 280 U/ml of dispase and 30 to 50 U/mil of collagenase. Here, the concentration of collagenase was appropriately changed for each lot in view of the state of cells. The pieces were washed twice with EBSS (Earle's Balanced Salt Solution) containing 1 mM of EDTA and then shaken in MEM (Minimum Essential Medium) containing 1 mM of EDTA at 37° C. for 5 minutes. Subsequently, they were shaken in the dispase and collagenase having the same concentrations as those mentioned above for 15 minutes so as to remove the supernatant and then further shaken at 37° C. for 50 to 60 minutes at 120 to 130 cycles/minute. Then, after being washed twice with HBSS, Ham F12 containing 2% of Ultrocer G™ was used to attain the concentration of 1×10^6 cells/ml. Thus formed suspension was dispensed in each well of a 96-well plate by 200 μl. The plate was incubated in the atmosphere composed of 5% CO2 and 95% air at 37° C. for three days so as to attain a confluent state and then subjected to MTT assay.
# The sample compound was dissolved in DMSO so as to attain a concentration of 10^-2 M and then diluted with HBSS containing 2% of Ultrocer G™ so as to attain a final concentration of 10^-4 M. To each group, which 8 wells were used for, 10 μl of MTT reagent was added immediately after 100 μl of the medium in each well was exchanged for same volume of the resulting solution of the sample compound. After being incubated in an atmosphere composed of 5% CO2 and 95% air at 37° C. for 4 hours, thus formed solution was centrifuged and then its supernatant was discarded. Subsequently, 100 μl of 100% ethanol was added to the residue so as to dissolve MTT formazan. Then, the absorbance (OD: 570 to 630) was measured by a microplate reader. This method utilizes a phenomenon in which MTT is changed to MTT formazan only by mitochondria of living cells so as to change color.
# The cell damaging or cell protecting effect of the sample compound at the final concentration of 10^-4 M was expressed as cell damaging rate (%) as follows:
# cell damaging rate (%)={1-(absorbance in sample group/absorbance in control group)}×100
# Accordingly, the smaller value is better in the cell damaging rate.
SMILES,WIS: ulcer formation inhibitory rate [1],"cytotoxicity at 4 h, 100 µM [2]"
"CCN(CC)CCSc1nnc(NC(=O)c2ccc(C(C)C)cc2)s1 [Example 1, 2-(4-isopropylbenzoyl)amino-5-diethylaminoethylthio-1,3,4-thiadiazole]",83%,22%
"CC(C)c1ccc(C(=O)Nc2nnc(SCCN(C(C)C)C(C)C)s2)cc1 [Example 2, 2-(4-isopropylbenzoyl)amino-5-diisopropylaminoethylthio-1,3,4-thiadiazole]",80%,
"CCN(CC)CCSc1nnc(NC(=O)c2ccc(C(C)(C)C)cc2)s1 [Example 4, 2-(4-tert-butylbenzoyl)amino-5-diethylaminoethylthio-1,3,4-thiadiazole]",79%,22%
"CCN(CC)CCSc1nnc(NC(=O)c2ccc(OC/C=C(\C)CCC=C(C)C)cc2)s1 [Example 10, 2-(4-geranyloxybenzoyl)amino-5-diethylaminoethylthio-1,3,4-thiadiazole]",48%,17%
"CC(C)=CCC/C(C)=C/COc1ccc(C(=O)Nc2nnc(SCCN3CCCCC3)s2)cc1 [Example 12, 2-(4-geranyloxybenzoyl)amino-5-piperidinoethylthio-1,3,4-thiadiazole]",44%,12%
"CC(C)=CCC/C(C)=C/COc1ccc(C(=O)Nc2nnc(SCc3ccccn3)s2)cc1 [Example 14, 2-(4-geranyloxybenzoyl)amino-5-(2-pyridylmethyl)thio-1,3,4-thiadiazole]",30%,-13%
"CCSc1nnc(NC(=O)c2ccc(OC/C=C(\C)CCC=C(C)C)cc2)s1 [Example 15, 2-(4-geranyloxybenzoyl)amino-5-ethylthio-1,3,4-thiadiazole]",43%,1%
